In this test the test system is MV-4-11 cells. Kind of test: Gene expression microarray analysis (Affymetrix PrimeView) and GSEA. It counts as cell-based, human. The conditions noted are these: MV-4-11 cells, 48 hours. Further details: RFU PODN (11730768_x_at) / Fold change /veh PODN (11730768_x_at) / RFU LINC00158 (11744669_a_at) / Fold change /veh LINC00158 (11744669_a_at) / RFU DUSP10 (11751237_a_at) / Fold change /veh DUSP10 (11751237_a_at) / RFU ID3 (11757404_x_at) / Fold change /veh ID3 (11757404_x_at) / RFU PLEKHG5 (11737974_s_at) / Fold change /veh PLEKHG5 (11737974_s_at) / RFU LRRC4B (11730491_at) / Fold change /veh LRRC4B (11730491_at) / RFU GIMAP4 (11747438_a_at) / Fold change /veh GIMAP4 (11747438_a_at) / RFU KRT8 (11758183_x_at) / Fold change /veh KRT8 (11758183_x_at) / RFU CNN1 (11734310_a_at) / Fold change /veh CNN1 (11734310_a_at) / RFU VPS37D (11726825_at) / Fold change /veh VPS37D (11726825_at) / RFU C10orf10 (11716522_x_at) / Fold change /veh C10orf10 (11716522_x_at) / RFU KIR2DL2 /// KIR2DL4 /// KIR2DL5A /// KIR2DL5B /// KIR2DS1 /// KIR2DS2 /// KIR2DS3 /// KIR2DS4 /// KIR3DL3 /// KIR3DL3 /// KIR3DS1 (11738374_at) / Fold change /veh KIR2DL2 /// KIR2DL4 /// KIR2DL5A /// KIR2DL5B /// KIR2DS1 /// KIR2DS2 /// KIR2DS3 /// KIR2DS4 /// KIR3DL3 /// KIR3DL3 /// KIR3DS1 (11738374_at) / RFU C1QL1 (11718748_at) / Fold change /veh C1QL1 (11718748_at) / RFU TMPRSS4 (11747572_a_at) / Fold change /veh TMPRSS4 (11747572_a_at) / RFU HAMP (11756126_x_at) / Fold change /veh HAMP (11756126_x_at) / RFU RNFT2 (11725882_a_at) / Fold change /veh RNFT2 (11725882_a_at) / RFU NR4A2 (11747474_a_at) / Fold change /veh NR4A2 (11747474_a_at) / RFU ABCC12 (11746883_a_at) / Fold change /veh ABCC12 (11746883_a_at) / RFU TMEM136 (11760407_x_at) / Fold change /veh TMEM136 (11760407_x_at) / RFU CLDN22 /// WWC2 (11732394_at) / Fold change /veh CLDN22 /// WWC2 (11732394_at) / RFU HLA-DPB1 (11760878_x_at) / Fold change /veh HLA-DPB1 (11760878_x_at) / RFU SPINT1 (11716480_a_at) / Fold change /veh SPINT1 (11716480_a_at) / RFU GAP43 (11754022_s_at) / Fold change /veh GAP43 (11754022_s_at) / RFU A4GNT (11735810_at) / Fold change /veh A4GNT (11735810_at) / RFU PRB3 (11715151_x_at) / Fold change /veh PRB3 (11715151_x_at) / RFU TUBB4B (11761932_at) / Fold change /veh TUBB4B (11761932_at) / RFU CAPN14 (11732068_a_at) / Fold change /veh CAPN14 (11732068_a_at) / RFU TMCC2 (11721928_a_at) / Fold change /veh TMCC2 (11721928_a_at) / RFU IRGQ (11745062_a_at) / Fold change /veh IRGQ (11745062_a_at) / RFU FAM174B (11720279_a_at) / Fold change /veh FAM174B (11720279_a_at) / RFU TMPRSS4 (11748680_a_at) / Fold change /veh TMPRSS4 (11748680_a_at) / RFU FAM212B (11763350_a_at) / Fold change /veh FAM212B (11763350_a_at) / RFU PLEKHG5 (11743358_a_at) / Fold change /veh PLEKHG5 (11743358_a_at) / RFU ZSCAN30 (11745921_a_at) / Fold change /veh ZSCAN30 (11745921_a_at) / RFU CMKLR1 (11741424_a_at) / Fold change /veh CMKLR1 (11741424_a_at) / RFU LOC101060620 /// MAPK8IP1 (11723275_at) / Fold change /veh LOC101060620 /// MAPK8IP1 (11723275_at) / RFU SPTSSB (11747773_x_at) / Fold change /veh SPTSSB (11747773_x_at) / RFU PRSS12 (11739890_at) / Fold change /veh PRSS12 (11739890_at) / RFU BIN1 (11741810_x_at) / Fold change /veh BIN1 (11741810_x_at) / RFU WNT11 (11732464_a_at) / Fold change /veh WNT11 (11732464_a_at) / RFU C10orf10 (11716521_a_at) / Fold change /veh C10orf10 (11716521_a_at) / RFU C5orf56 (11738089_at) / Fold change /veh C5orf56 (11738089_at) / RFU CYB561 (11721691_x_at) / Fold change /veh CYB561 (11721691_x_at) / RFU ANKRD19P (11752326_a_at) / Fold change /veh ANKRD19P (11752326_a_at) / RFU OR2T12 /// OR2T33 /// OR2T8 (11738714_s_at) / Fold change /veh OR2T12 /// OR2T33 /// OR2T8 (11738714_s_at) / RFU VCAN (11748164_a_at) / Fold change /veh VCAN (11748164_a_at) / RFU JSRP1 (11732532_at) / Fold change /veh JSRP1 (11732532_at) / RFU KRTAP10-11 (11738290_x_at) / Fold change /veh KRTAP10-11 (11738290_x_at) / RFU MYO3A (11730013_a_at) / Fold change /veh MYO3A (11730013_a_at) / RFU EBF3 (11725865_a_at) / Fold change /veh EBF3 (11725865_a_at) / RFU CAMK2N1 (11719241_x_at) / Fold change /veh CAMK2N1 (11719241_x_at) / RFU C5orf56 (11738088_a_at) / Fold change /veh C5orf56 (11738088_a_at) / RFU OLFML3 (11715873_a_at) / Fold change /veh OLFML3 (11715873_a_at) / RFU LOC100653217 /// NTM (11731650_a_at) / Fold change /veh LOC100653217 /// NTM (11731650_a_at) / RFU MAPK11 (11762145_a_at) / Fold change /veh MAPK11 (11762145_a_at) / RFU FIZ1 (11724087_x_at) / Fold change /veh FIZ1 (11724087_x_at) / RFU OASL (11726364_x_at) / Fold change /veh OASL (11726364_x_at) / RFU SOX15 (11748057_x_at) / Fold change /veh SOX15 (11748057_x_at) / RFU CD79A (11719716_a_at) / Fold change /veh CD79A (11719716_a_at) / RFU HIST1H1D (11736915_at) / Fold change /veh HIST1H1D (11736915_at) / RFU CASKIN2 (11723855_a_at) / Fold change /veh CASKIN2 (11723855_a_at) / RFU LOC730098 (11760151_x_at) / Fold change /veh LOC730098 (11760151_x_at) / RFU OR4N2 (11742367_at) / Fold change /veh OR4N2 (11742367_at) / RFU PRRT2 (11749266_a_at) / Fold change /veh PRRT2 (11749266_a_at) / RFU SNX32 (11753110_a_at) / Fold change /veh SNX32 (11753110_a_at) / RFU CDHR5 (11726645_a_at) / Fold change /veh CDHR5 (11726645_a_at) / RFU RCAN1 (11760418_a_at) / Fold change /veh RCAN1 (11760418_a_at) / RFU FAM167A (11723789_a_at) / Fold change /veh FAM167A (11723789_a_at) / RFU FAM26E (11764081_at) / Fold change /veh FAM26E (11764081_at) / RFU ISYNA1 (11749810_s_at) / Fold change /veh ISYNA1 (11749810_s_at) / RFU ACY1 (11761880_at) / Fold change /veh ACY1 (11761880_at) / RFU 11764098_at / Fold change /veh 11764098_at / RFU SAMD14 (11745864_x_at) / Fold change /veh SAMD14 (11745864_x_at) / RFU NPB (11741838_a_at) / Fold change /veh NPB (11741838_a_at) / RFU TMPRSS6 (11731388_a_at) / Fold change /veh TMPRSS6 (11731388_a_at) / RFU KRTAP10-2 (11738614_at) / Fold change /veh KRTAP10-2 (11738614_at) / RFU ARHGAP8 /// PRR5-ARHGAP8 (11727945_x_at) / Fold change /veh ARHGAP8 /// PRR5-ARHGAP8 (11727945_x_at) / RFU KRTAP5-7 /// NADSYN1 (11734609_at) / Fold change /veh KRTAP5-7 /// NADSYN1 (11734609_at) / RFU RASL12 (11751679_a_at) / Fold change /veh RASL12 (11751679_a_at) / RFU CDKN2B (11736163_a_at) / Fold change /veh CDKN2B (11736163_a_at) / RFU PRF1 (11729649_at) / Fold change /veh PRF1 (11729649_at) / RFU, ZNF638 /// ZNF638-IT1 / Fold change vs veh, ZNF638 /// ZNF638-IT1 / RFU, PANK3 / Fold change vs veh, PANK3 / RFU, SH3YL1 / Fold change vs veh, SH3YL1 / RFU, ZEB2 / Fold change vs veh, ZEB2 / RFU, NRIP1 / Fold change vs veh, NRIP1 / RFU, PTTG1IP / Fold change vs veh, PTTG1IP / RFU, CAPN2 / Fold change vs veh, CAPN2 / RFU, MED14 / Fold change vs veh, MED14 / RFU, SNORA58 / Fold change vs veh, SNORA58 / RFU, C1orf63 / Fold change vs veh, C1orf63 / RFU, LRRFIP1 / Fold change vs veh, LRRFIP1 / RFU, NDUFAF7 / Fold change vs veh, NDUFAF7 / RFU, SLC12A2 / Fold change vs veh, SLC12A2 / RFU, IBTK / Fold change vs veh, IBTK / RFU, ESF1 / Fold change vs veh, ESF1 / Fold change vs veh, TMEM50B / RFU, TAOK1 / Fold change vs veh, TAOK1 / RFU, ACBD3 / Fold change vs veh, ACBD3 / RFU, TMA16 / Fold change vs veh, TMA16 / RFU, RWDD3 / Fold change vs veh, RWDD3 / RFU, BCAT1 / Fold change vs veh, BCAT1 / RFU, EDEM3 / Fold change vs veh, EDEM3 / RFU, TMEM33 / Fold change vs veh, TMEM33 / RFU, WDR75 / Fold change vs veh, WDR75 / RFU, AHCTF1 / Fold change vs veh, AHCTF1 / RFU, TFRC / Fold change vs veh, TFRC / RFU, ZDHHC17 / Fold change vs veh, ZDHHC17 / RFU, NOM1 / Fold change vs veh, NOM1 / RFU, ARL8B / Fold change vs veh, ARL8B / RFU, ZBTB11 / Fold change vs veh, ZBTB11 / RFU, TAMM41 / Fold change vs veh, TAMM41 / RFU, KIAA1704 /// LOC100996395 / Fold change vs veh, KIAA1704 /// LOC100996395 / RFU, ING1 / Fold change vs veh, ING1 / RFU, TRMT61B / Fold change vs veh, TRMT61B / RFU, FUBP3 / Fold change vs veh, FUBP3 / RFU, TP53 / Fold change vs veh, TP53 / RFU, TNKS2 / Fold change vs veh, TNKS2 / RFU, ZFP14 / Fold change vs veh, ZFP14 / RFU, ACTR2 / Fold change vs veh, ACTR2 / RFU, PPP3R1 / Fold change vs veh, PPP3R1 / RFU, PIK3R1 / Fold change vs veh, PIK3R1 / RFU, HNRNPA1 / Fold change vs veh, HNRNPA1 / RFU, RNF170 / Fold change vs veh, RNF170 / RFU, ZNF28 / Fold change vs veh, ZNF28 / RFU, RNGTT / Fold change vs veh, RNGTT / RFU, OGT / Fold change vs veh, OGT / RFU, BRD1 / Fold change vs veh, BRD1 / RFU, MARS / Fold change vs veh, MARS / RFU, ZNF655 / Fold change vs veh, ZNF655 / RFU, FAHD1 / Fold change vs veh, FAHD1 / RFU, BDP1 / Fold change vs veh, BDP1 / RFU, LRRCC1 / Fold change vs veh, LRRCC1 / RFU, ARID1A / Fold change vs veh, ARID1A / RFU, ZNF146 / Fold change vs veh, ZNF146 / RFU, ZNF330 / Fold change vs veh, ZNF330 / RFU, GPN3 / Fold change vs veh, GPN3 / RFU, C9orf123 / Fold change vs veh, C9orf123 / RFU, N4BP2L2 / Fold change vs veh, N4BP2L2 / RFU, ARFIP1 / Fold change vs veh, ARFIP1 / RFU, FAM179B / Fold change vs veh, FAM179B / RFU, BCL10 / Fold change vs veh, BCL10 / RFU, UHRF1BP1L / Fold change vs veh, UHRF1BP1L / RFU, BET1 / Fold change vs veh, BET1 / RFU, CNOT2 / Fold change vs veh, CNOT2 / RFU, ZNF268 / Fold change vs veh, ZNF268 / Fold change vs veh, ZNF507 / RFU, DGCR2 / Fold change vs veh, DGCR2 / RFU, WDSUB1 / Fold change vs veh, WDSUB1 / Fold change vs veh, HSP90B1 /// MIR3652 / RFU, ADSS / Fold change vs veh, ADSS / RFU, GK / Fold change vs veh, GK / RFU, ZNF148 / Fold change vs veh, ZNF148 / RFU, TAF9 / Fold change vs veh, TAF9 / RFU, SLC1A5 / Fold change vs veh, SLC1A5 / RFU, SLMO2 / Fold change vs veh, SLMO2 / RFU, ABCC4 / Fold change vs veh, ABCC4 / RFU, LOC101060439 /// RAP1B / Fold change vs veh, LOC101060439 /// RAP1B / RFU, RFX7 / Fold change vs veh, RFX7 / RFU, GTPBP10 / Fold change vs veh, GTPBP10 / RFU, CNEP1R1 / Fold change vs veh, CNEP1R1 / RFU, BIVM-ERCC5 /// ERCC5 / Fold change vs veh, BIVM-ERCC5 /// ERCC5 / RFU, ILF3 / Fold change vs veh, ILF3 / RFU 11762660_at / Fold change /veh 11762660_at / RFU VCAN (11757783_s_at) / Fold change /veh VCAN (11757783_s_at) / RFU DDX43 (11728927_at) / Fold change /veh DDX43 (11728927_at) / RFU KRT8 (11758188_x_at) / Fold change /veh KRT8 (11758188_x_at) / RFU NKD1 (11759106_at) / Fold change /veh NKD1 (11759106_at) / RFU SRD5A1 (11742802_a_at) / Fold change /veh SRD5A1 (11742802_a_at) / RFU TPSAB1 /// TPSB2 (11721975_s_at) / Fold change /veh TPSAB1 /// TPSB2 (11721975_s_at) / RFU GSTM3 (11746129_a_at) / Fold change /veh GSTM3 (11746129_a_at) / RFU IL23R (11737362_x_at) / Fold change /veh IL23R (11737362_x_at) / RFU TMEM51 (11727254_a_at) / Fold change /veh TMEM51 (11727254_a_at) / RFU PIWIL2 (11732686_x_at) / Fold change /veh PIWIL2 (11732686_x_at) / RFU ORM1 (11744905_x_at) / Fold change /veh ORM1 (11744905_x_at) / RFU CCDC152 (11743942_at) / Fold change /veh CCDC152 (11743942_at) / RFU ECM1 (11717891_a_at) / Fold change /veh ECM1 (11717891_a_at) / RFU IL23R (11748794_a_at) / Fold change /veh IL23R (11748794_a_at) / RFU TNFAIP8L3 (11732012_x_at) / Fold change /veh TNFAIP8L3 (11732012_x_at) / RFU MBOAT4 (11741988_at) / Fold change /veh MBOAT4 (11741988_at) / RFU 11764193_at / Fold change /veh 11764193_at / RFU TMEM53 (11763286_at) / Fold change /veh TMEM53 (11763286_at) / RFU MAGEB2 (11727129_at) / Fold change /veh MAGEB2 (11727129_at) / RFU TMEM200A (11744735_a_at) / Fold change /veh TMEM200A (11744735_a_at) / RFU CCDC152 (11751479_a_at) / Fold change /veh CCDC152 (11751479_a_at) / RFU FAM211A (11726209_a_at) / Fold change /veh FAM211A (11726209_a_at) / RFU RGS16 (11746705_a_at) / Fold change /veh RGS16 (11746705_a_at) / RFU VCAN (11755009_s_at) / Fold change /veh VCAN (11755009_s_at) / RFU RHOB (11743442_s_at) / Fold change /veh RHOB (11743442_s_at) / RFU RGS16 (11720943_a_at) / Fold change /veh RGS16 (11720943_a_at) / RFU RGS16 (11720944_at) / Fold change /veh RGS16 (11720944_at) / RFU, VPS4B / Fold change vs veh, VPS4B / RFU, CREB1 / Fold change vs veh, CREB1 / RFU, DNAJC13 / Fold change vs veh, DNAJC13 / RFU, GNAQ / Fold change vs veh, GNAQ / RFU, CDK5R1 / Fold change vs veh, CDK5R1 / RFU, ZRANB3 / Fold change vs veh, ZRANB3 / RFU, CUL4A / Fold change vs veh, CUL4A / RFU, CCNY / Fold change vs veh, CCNY / RFU, UFL1 / Fold change vs veh, UFL1 / RFU, COG3 / Fold change vs veh, COG3 / RFU, DIAPH2 / Fold change vs veh, DIAPH2 / RFU, SKA2 / Fold change vs veh, SKA2 / RFU, AFF3 / Fold change vs veh, AFF3 / RFU, LMF1 / Fold change vs veh, LMF1 / RFU, IPO11 / Fold change vs veh, IPO11 / RFU, DFFB / Fold change vs veh, DFFB / RFU, FOXP1 / Fold change vs veh, FOXP1 / RFU, CARD8 / Fold change vs veh, CARD8 / RFU, STRN3 / Fold change vs veh, STRN3 / RFU, ADK / Fold change vs veh, ADK / RFU, RASSF2 / Fold change vs veh, RASSF2 / RFU, WIPF1 / Fold change vs veh, WIPF1 / RFU, LARP1B / Fold change vs veh, LARP1B / RFU, RASA1 / Fold change vs veh, RASA1 / RFU, RB1 / Fold change vs veh, RB1 / RFU, PPFIA1 / Fold change vs veh, PPFIA1 / RFU, MAT2A / Fold change vs veh, MAT2A / RFU, CCT5 / Fold change vs veh, CCT5 / RFU, WDR92 / Fold change vs veh, WDR92 / RFU, CUX1 / Fold change vs veh, CUX1 / RFU, TTC7A / Fold change vs veh, TTC7A / RFU, TMEM135 / Fold change vs veh, TMEM135 / RFU, DEPTOR / Fold change vs veh, DEPTOR / RFU, CPM / Fold change vs veh, CPM / RFU, DNAJB6 / Fold change vs veh, DNAJB6 / RFU, CACNA2D3 / Fold change vs veh, CACNA2D3 / RFU, DTX4 / Fold change vs veh, DTX4 / RFU, TFCP2 / Fold change vs veh, TFCP2 / RFU, GMCL1 /// GMCL1P1 / Fold change vs veh, GMCL1 /// GMCL1P1 / RFU, AEBP2 / Fold change vs veh, AEBP2 / RFU, SNHG1 /// SNORD22 /// SNORD25 /// SNORD26 /// SNORD27 /// SNORD28 /// SNORD29 /// SNORD31 / Fold change vs veh, SNHG1 /// SNORD22 /// SNORD25 /// SNORD26 /// SNORD27 /// SNORD28 /// SNORD29 /// SNORD31 / Fold change (Aza/veh), C12orf56 (ProbeSet 11735607_a_at) / Fold change (ACY-1035/veh), C12orf56 (ProbeSet 11735607_a_at) / Fold change (Aza/veh), FGFR1OP (ProbeSet 11751329_s_at) / Fold change (ACY-1035/veh), FGFR1OP (ProbeSet 11751329_s_at) / Fold change (Aza/veh), VPS36 (ProbeSet 11739960_a_at) / Fold change (ACY-1035/veh), VPS36 (ProbeSet 11739960_a_at) / RFU SYPL1 (11715823_x_at) / Fold change /veh SYPL1 (11715823_x_at) / RFU IGFBP7 (11715501_s_at) / Fold change /veh IGFBP7 (11715501_s_at) / RFU REEP3 (11722064_at) / Fold change /veh REEP3 (11722064_at) / RFU IGLL1 (11728026_x_at) / Fold change /veh IGLL1 (11728026_x_at): dose or concentration left out as unconfirmed.

Consider one molecule from publication PMC5218480 (PLoS ONE, 2017).

In the case of `Nc1ccc(-c2cccs2)cc1NC(=O)c1ccc2c(c1)cc(C1CC1)n2CCN1CCOCC1` [ACY-1035], the “Fold change /veh SPTSSB (11747773_x_at)” value is given as 0.98.
